Experimental data published in the supplement of paper PMC10307832.

Columns and labels:
Apatinib + Foretinib = compound: N#CC1(c2ccc(NC(=O)c3cccnc3NCc3ccncc3)cc2)CCCC1 [Apatinib] + COc1cc2c(Oc3ccc(NC(=O)C4(C(=O)Nc5ccc(F)cc5)CC4)cc3F)ccnc2cc1OCCCN1CCOCC1 [Foretinib] (partner 0.25 µM); assay: relative viability (nuclei count vs DMSO), 5 days (fraction); higher = more cells survive
Procedure, shortened: (§1)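 After 5 days of treatment, lung cancer cells in 1536-well plates were fixed and stained in a single step (final 0.05% Triton X-100, 1% formaldehyde, 1 ug/ml Hoechst) and their nuclei counted on 4× images. Treatment had been applied by pin tool the day after seeding as one drug alone or as a fixed anchor-drug dose with five library-drug doses (not always all listed) in √10 steps. Relative viability is the nuclei count of treated wells divided by that of vehicle wells, and values are medians of duplicate plates.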

Metformin + Navitoclax = compound: CN(C)C(=N)NC(=N)N [Metformin] + CC1(C)CCC(c2ccc(Cl)cc2)=C(CN2CCN(c3ccc(C(=O)NS(=O)(=O)c4ccc(N[C@H](CCN5CCOCC5)CSc5ccccc5)c(S(=O)(=O)C(F)(F)F)c4)cc3)CC2)C1 [Navitoclax] (partner 0.5 µM); assay: as above
Procedure, shortened: as §1

NCI-H1437
relative viability (Apatinib + Foretinib; first compound 0.08 µM): 1.28
relative viability (Apatinib + Foretinib; first compound 0.253 µM): 1.26
relative viability (Apatinib + Foretinib; first compound 0.8 µM): 1.24
relative viability (Apatinib + Foretinib; first compound 2.53 µM): 1.03
relative viability (Apatinib + Foretinib; first compound 8 µM): 1.02
relative viability (Metformin + Navitoclax; first compound 10 µM): 1.08
relative viability (Metformin + Navitoclax; first compound 31.62 µM): 1.08
relative viability (Metformin + Navitoclax; first compound 100 µM): 1.12
relative viability (Metformin + Navitoclax; first compound 316.23 µM): 0.979
relative viability (Metformin + Navitoclax; first compound 1000 µM): 1.08

A-427
relative viability (Apatinib + Foretinib; first compound 0.08 µM): 1.22
relative viability (Apatinib + Foretinib; first compound 0.253 µM): 0.828
relative viability (Apatinib + Foretinib; first compound 0.8 µM): 1.03
relative viability (Apatinib + Foretinib; first compound 2.53 µM): 1.01
relative viability (Apatinib + Foretinib; first compound 8 µM): 0.598
relative viability (Metformin + Navitoclax; first compound 10 µM): 1.01
relative viability (Metformin + Navitoclax; first compound 31.62 µM): 1
relative viability (Metformin + Navitoclax; first compound 100 µM): 0.969
relative viability (Metformin + Navitoclax; first compound 316.23 µM): 0.978
relative viability (Metformin + Navitoclax; first compound 1000 µM): 0.887

SK-LU-1
relative viability (Apatinib + Foretinib; first compound 0.08 µM): 1.01
relative viability (Apatinib + Foretinib; first compound 0.253 µM): 0.857
relative viability (Apatinib + Foretinib; first compound 0.8 µM): 0.859
relative viability (Apatinib + Foretinib; first compound 2.53 µM): 0.719
relative viability (Apatinib + Foretinib; first compound 8 µM): 0.732
relative viability (Metformin + Navitoclax; first compound 10 µM): 0.891
relative viability (Metformin + Navitoclax; first compound 31.62 µM): 0.777
relative viability (Metformin + Navitoclax; first compound 100 µM): 0.976
relative viability (Metformin + Navitoclax; first compound 316.23 µM): 0.926
relative viability (Metformin + Navitoclax; first compound 1000 µM): 0.953

NCI-H1703
relative viability (Apatinib + Foretinib; first compound 0.08 µM): 0.37
relative viability (Apatinib + Foretinib; first compound 0.253 µM): 0.345
relative viability (Apatinib + Foretinib; first compound 0.8 µM): 0.31
relative viability (Apatinib + Foretinib; first compound 2.53 µM): 0.297
relative viability (Apatinib + Foretinib; first compound 8 µM): 0.37
relative viability (Metformin + Navitoclax; first compound 10 µM): 1.18
relative viability (Metformin + Navitoclax; first compound 31.62 µM): 1.15
relative viability (Metformin + Navitoclax; first compound 100 µM): 1.16
relative viability (Metformin + Navitoclax; first compound 316.23 µM): 0.854
relative viability (Metformin + Navitoclax; first compound 1000 µM): 0.735

NCI-H2405
relative viability (Apatinib + Foretinib; first compound 0.08 µM): 1.15
relative viability (Apatinib + Foretinib; first compound 0.253 µM): 1.02
relative viability (Apatinib + Foretinib; first compound 0.8 µM): 1.09
relative viability (Apatinib + Foretinib; first compound 2.53 µM): 0.998
relative viability (Apatinib + Foretinib; first compound 8 µM): 1.09
relative viability (Metformin + Navitoclax; first compound 10 µM): 0.869
relative viability (Metformin + Navitoclax; first compound 31.62 µM): 1.26
relative viability (Metformin + Navitoclax; first compound 100 µM): 0.988
relative viability (Metformin + Navitoclax; first compound 316.23 µM): 1.07
relative viability (Metformin + Navitoclax; first compound 1000 µM): 1.09

LK-2
relative viability (Apatinib + Foretinib; first compound 0.08 µM): 1.37
relative viability (Apatinib + Foretinib; first compound 0.253 µM): 1.13
relative viability (Apatinib + Foretinib; first compound 0.8 µM): 1.13
relative viability (Apatinib + Foretinib; first compound 2.53 µM): 1.1
relative viability (Apatinib + Foretinib; first compound 8 µM): 0.645
relative viability (Metformin + Navitoclax; first compound 10 µM): 0.86
relative viability (Metformin + Navitoclax; first compound 31.62 µM): 1.15
relative viability (Metformin + Navitoclax; first compound 100 µM): 1.2
relative viability (Metformin + Navitoclax; first compound 316.23 µM): 0.933
relative viability (Metformin + Navitoclax; first compound 1000 µM): 1.2

LOU-NH91
relative viability (Apatinib + Foretinib; first compound 0.08 µM): 0.979
relative viability (Apatinib + Foretinib; first compound 0.253 µM): 0.891
relative viability (Apatinib + Foretinib; first compound 0.8 µM): 0.836
relative viability (Apatinib + Foretinib; first compound 2.53 µM): 0.891
relative viability (Apatinib + Foretinib; first compound 8 µM): 0.829
relative viability (Metformin + Navitoclax; first compound 10 µM): 0.867
relative viability (Metformin + Navitoclax; first compound 31.62 µM): 0.717
relative viability (Metformin + Navitoclax; first compound 100 µM): 0.751
relative viability (Metformin + Navitoclax; first compound 316.23 µM): 0.766
relative viability (Metformin + Navitoclax; first compound 1000 µM): 0.767

COR-L 105
relative viability (Apatinib + Foretinib; first compound 0.08 µM): 1.36
relative viability (Apatinib + Foretinib; first compound 0.253 µM): 1.11
relative viability (Apatinib + Foretinib; first compound 0.8 µM): 1.23
relative viability (Apatinib + Foretinib; first compound 2.53 µM): 0.768
relative viability (Apatinib + Foretinib; first compound 8 µM): 0.849
relative viability (Metformin + Navitoclax; first compound 10 µM): 0.812
relative viability (Metformin + Navitoclax; first compound 31.62 µM): 0.923
relative viability (Metformin + Navitoclax; first compound 100 µM): 0.843
relative viability (Metformin + Navitoclax; first compound 316.23 µM): 0.654
relative viability (Metformin + Navitoclax; first compound 1000 µM): 0.571

NCI-H1650
relative viability (Apatinib + Foretinib; first compound 0.253 µM): 1.07
relative viability (Apatinib + Foretinib; first compound 0.8 µM): 0.959
relative viability (Apatinib + Foretinib; first compound 2.53 µM): 0.923
relative viability (Apatinib + Foretinib; first compound 8 µM): 0.81
relative viability (Metformin + Navitoclax; first compound 10 µM): 1.16
relative viability (Metformin + Navitoclax; first compound 31.62 µM): 1.34
relative viability (Metformin + Navitoclax; first compound 100 µM): 1.46
relative viability (Metformin + Navitoclax; first compound 316.23 µM): 1.37
relative viability (Metformin + Navitoclax; first compound 1000 µM): 1.1

H3255
relative viability (Apatinib + Foretinib; first compound 0.08 µM): 0.973
relative viability (Apatinib + Foretinib; first compound 0.253 µM): 0.795
relative viability (Apatinib + Foretinib; first compound 0.8 µM): 0.757
relative viability (Apatinib + Foretinib; first compound 2.53 µM): 0.753
relative viability (Apatinib + Foretinib; first compound 8 µM): 0.675
relative viability (Metformin + Navitoclax; first compound 10 µM): 0.503
relative viability (Metformin + Navitoclax; first compound 31.62 µM): 0.623
relative viability (Metformin + Navitoclax; first compound 100 µM): 0.571
relative viability (Metformin + Navitoclax; first compound 316.23 µM): 0.531
relative viability (Metformin + Navitoclax; first compound 1000 µM): 0.355

NCI-H2228
relative viability (Apatinib + Foretinib; first compound 0.08 µM): 0.933
relative viability (Apatinib + Foretinib; first compound 0.253 µM): 0.791
relative viability (Apatinib + Foretinib; first compound 0.8 µM): 0.777
relative viability (Apatinib + Foretinib; first compound 2.53 µM): 0.688
relative viability (Apatinib + Foretinib; first compound 8 µM): 0.51
relative viability (Metformin + Navitoclax; first compound 10 µM): 1.02
relative viability (Metformin + Navitoclax; first compound 31.62 µM): 1.04
relative viability (Metformin + Navitoclax; first compound 316.23 µM): 0.815
relative viability (Metformin + Navitoclax; first compound 1000 µM): 1.05

NCI-H1993
relative viability (Apatinib + Foretinib; first compound 0.08 µM): 0.85
relative viability (Apatinib + Foretinib; first compound 0.253 µM): 0.766
relative viability (Apatinib + Foretinib; first compound 0.8 µM): 0.808
relative viability (Apatinib + Foretinib; first compound 2.53 µM): 0.702
relative viability (Apatinib + Foretinib; first compound 8 µM): 0.687
relative viability (Metformin + Navitoclax; first compound 10 µM): 1.04
relative viability (Metformin + Navitoclax; first compound 31.62 µM): 1.04
relative viability (Metformin + Navitoclax; first compound 100 µM): 1.28
relative viability (Metformin + Navitoclax; first compound 316.23 µM): 0.968
relative viability (Metformin + Navitoclax; first compound 1000 µM): 1.25

LCLC-103H
relative viability (Apatinib + Foretinib; first compound 0.08 µM): 0.785
relative viability (Apatinib + Foretinib; first compound 0.253 µM): 0.957
relative viability (Apatinib + Foretinib; first compound 0.8 µM): 0.681
relative viability (Apatinib + Foretinib; first compound 2.53 µM): 0.805
relative viability (Apatinib + Foretinib; first compound 8 µM): 0.573

NCI-H1299
relative viability (Apatinib + Foretinib; first compound 0.08 µM): 1.14
relative viability (Apatinib + Foretinib; first compound 0.253 µM): 1.13
relative viability (Apatinib + Foretinib; first compound 0.8 µM): 1.09
relative viability (Apatinib + Foretinib; first compound 2.53 µM): 1.09
relative viability (Apatinib + Foretinib; first compound 8 µM): 0.941
relative viability (Metformin + Navitoclax; first compound 10 µM): 1.12
relative viability (Metformin + Navitoclax; first compound 31.62 µM): 1.11
relative viability (Metformin + Navitoclax; first compound 100 µM): 1.15
relative viability (Metformin + Navitoclax; first compound 316.23 µM): 1.15
relative viability (Metformin + Navitoclax; first compound 1000 µM): 1.12

ChaGo-K-1
relative viability (Apatinib + Foretinib; first compound 0.08 µM): 0.991
relative viability (Apatinib + Foretinib; first compound 0.253 µM): 1
relative viability (Apatinib + Foretinib; first compound 0.8 µM): 0.942
relative viability (Apatinib + Foretinib; first compound 2.53 µM): 0.851
relative viability (Apatinib + Foretinib; first compound 8 µM): 0.745
relative viability (Metformin + Navitoclax; first compound 10 µM): 1
relative viability (Metformin + Navitoclax; first compound 31.62 µM): 1.42
relative viability (Metformin + Navitoclax; first compound 100 µM): 0.95
relative viability (Metformin + Navitoclax; first compound 316.23 µM): 0.93
relative viability (Metformin + Navitoclax; first compound 1000 µM): 1.24

NCI-H441
relative viability (Apatinib + Foretinib; first compound 0.08 µM): 0.872
relative viability (Apatinib + Foretinib; first compound 0.253 µM): 1.14
relative viability (Apatinib + Foretinib; first compound 0.8 µM): 0.79
relative viability (Apatinib + Foretinib; first compound 2.53 µM): 0.904
relative viability (Apatinib + Foretinib; first compound 8 µM): 0.732
relative viability (Metformin + Navitoclax; first compound 10 µM): 0.408
relative viability (Metformin + Navitoclax; first compound 100 µM): 0.55
relative viability (Metformin + Navitoclax; first compound 1000 µM): 0.486

ABC-1
relative viability (Apatinib + Foretinib; first compound 0.253 µM): 1.27
relative viability (Apatinib + Foretinib; first compound 0.8 µM): 0.961
relative viability (Apatinib + Foretinib; first compound 2.53 µM): 1.1
relative viability (Apatinib + Foretinib; first compound 8 µM): 1.02

NCI-H1651
relative viability (Apatinib + Foretinib; first compound 0.08 µM): 0.925
relative viability (Apatinib + Foretinib; first compound 0.253 µM): 0.897
relative viability (Apatinib + Foretinib; first compound 0.8 µM): 0.765
relative viability (Apatinib + Foretinib; first compound 2.53 µM): 0.577
relative viability (Apatinib + Foretinib; first compound 8 µM): 0.495
relative viability (Metformin + Navitoclax; first compound 10 µM): 1.14
relative viability (Metformin + Navitoclax; first compound 31.62 µM): 1.38
relative viability (Metformin + Navitoclax; first compound 100 µM): 1.27
relative viability (Metformin + Navitoclax; first compound 316.23 µM): 1.21
relative viability (Metformin + Navitoclax; first compound 1000 µM): 1.46
